From PMC4900628, “Critical Evaluation of P2X7 Receptor Antagonists in Selected Seizure Models” (PLoS ONE, 2016) come the findings set out here.

Assay [1] has as its system PTZ-induced seizures in fully PTZ-kindled rats. Put plainly: PTZ-induced seizures in fully kindled rats. The format is in vivo. Particulars: TIIAS 30 mg/kg i.p., BBG 50 mg/kg i.p., AFC 25 mg/kg i.p., JNJ 30 mg/kg s.c.; acute.
Assay [2] relates to PTZ-induced generalized clonic seizures. Put plainly: Pentylenetetrazol seizure threshold test (PTZ-T). The format is in vivo. How it is done:
Unrestrained mice, placed in separate full-view Plexiglas cages, were injected with the convulsant drug PTZ, a non-competitive GABAA receptor antagonist, at a dose of 87 mg/kg s.c. in the neck and the appearance of the first generalized clonus (repeated clonic seizures of the fore- and hindlimbs lasting ≥3 s with an accompanying loss of righting reflex) was recorded during individual observation for 30 min (see [69]). […] Group sizes of 12 mice were used in all experiments. Control groups, which received vehicle, were tested together with the compound-treated group on the same experimental day. The number of animals in the group with a generalized clonic seizure and the latency time to its onset were analysed for statistical significance. In the absence of seizures within 30 min, the latency was taken as 1800 s.
For the seizure tests (MES-T, PTZ-T, PTZ-kindling), BBG and TIIAS was dissolved in polyethylene glycol (PEG BioUltra, 400, Sigma-Aldrich), diluted to 20% with aqua (aqua ad iniectabilia, Braun, Melsungen, Germany). AFC was solubilized in ≥97% N,N-dimethylacetamide (DMA, Sigma-Aldrich), vortexed and diluted with 45% 2-hydroxypropyl-ß-cyclodextrin (ß-CD, Sigma-Aldrich) (final ratio of the vehicle 1:9). JNJ-47965567 was solubilized in two equivalents of 1N HCl, vortexed and sonicated (until the compound was mostly diluted) and then 30% of sulfobutylether-ß-cyclodextrin (SBE-ß-CD, Toronto Res. Chemicals, Toronto, Canada) was slowly added. The pH was adjusted with 1N NaOH (similar amount of NaOH as HCl), all with continuous stirring. PTZ was dissolved in 0.9% NaCl-solution, carbamazepine, ethosuximide and Ca-valproate were administered in a 2% (w/v) suspension of hydroxyethylcellulose. The drug solutions or suspensions were prepared immediately before use; all doses refer to the salts. Animals in the control group received equivalent volumes of the vehicle (in mice always 10 ml/kg, in rats 1 ml/kg [JNJ], 3 ml/kg [AFC] or 4 ml/kg [BBG, TIIAS], depending on the solubility of the different compounds). Doses and peak time effects were selected on the basis of effective doses from corresponding in vivo studies in the literature: BBG (e.g.), tanshinone IIA (e.g.) and from manufacturer’s experimental data: AFC, JNJ (see, [80]).
Data were analysed using SigmaPlot (vers. 12.0, Systat Software, Erkrath, Germany) and SPSS (IBM SPSS Statistics 20, Ehningen, Germany), respectively. Results are expressed as mean ± SEM. In the fluorometric Ca^2+ assays, concentration-response curves were fitted by using a 4-parameter logistic function (Hill slope, Emin, Emax, IC50). […] In the MES-T, the current intensity inducing tonic hindlimb extensions in 50% of the mice (CC50 values with confidence limits for 95% probability) and the statistical significance was calculated using Probit analysis (SPSS). In the case of multiple comparisons between different groups α-correction was performed so that only differences with a P value of < 0.01 were considered significant. In the PTZ-T, the number of animals in the group with clonic seizures and the latency time were analysed using Fisher's exact probability test and the Mann-Whitney rank sum test, respectively. For multiple comparisons of the latency time a one-way ANOVA with the Holm-Sidak post hoc test was used. The influence of AFC on the plasma and brain concentrations of the antiepileptic drugs was statistical compared using the same procedure. In the PTZ-kindling model, the mean seizure stage within a group was calculated in relation to the number of PTZ-injections. Statistical comparison between vehicle- and compound-treated groups in this model was performed with two-way repeated measures ANOVA, followed by the Holm-Sidak post hoc test. The mean number of PTZ-injections needed to produce the first generalized seizure (≥ stage 3 convulsions) in the vehicle- versus compound-treated groups was statistically compared using a Mann-Whitney rank sum test.

Molecules are shown by their SMILES.

For `Cc1c(S(=O)(=O)[O-])oc2c1C(=O)C(=O)c1c-2ccc2c1CCCC2(C)C.[Na+]` [Tanshinone TIIAS, tanshinone IIS sulfonic sodium], the “effect on mean seizure stage in fully kindled rats” value in assay [1] is recorded as “tendency to reduce the mean seizure stage”. Besides, the “# of mice/ with seizure” value in assay [2] (30 mg/kg i.p. 45 min before PTZ 87 mg/kg s.c.) is 12/11. For the same compound, the “Cases of death (within 30 min)” value in assay [2] (mice, n=12, 30 mg/kg i.p. 45 min before PTZ 87 mg/kg s.c.) is given as 0. Besides, in assay [2] (mice, 30 mg/kg i.p. 45 min before PTZ 87 mg/kg s.c., mean ± SEM), the “Latency to the first gen. Clonus” value turned out to be 10.08 ± 2.64 min. The “Latency to the first gen. clonus (% of control)” value in assay [2] (mice, 30 mg/kg i.p. 45 min before PTZ 87 mg/kg s.c., vehicle 5.00 ± 1.04 min) is 201.6 ± 52.8%. Besides, in assay [2] (mice, compounds alone, PTZ 87 mg/kg s.c.), the “latency to the onset of the first clonic seizures at higher doses” value was “tended to increase the latency”.
